Test results: patent US10370727B2, “Point mutations in TRK inhibitor-resistant cancer and methods relating to the same” (Loxo Oncology, Inc., priority 2015, dated 2019)
Counter-ions that a name gives are not always drawn.

Tests used:
[1] = test system: cells expressing a MPRIP-NTRK1 fusion protein including Trk inhibitor resistance mutations; assay: Proliferation (percent of control) of cells expressing mutant MPRIP-NTRK1 fusion; format: cell-based; settings: TrkA substitutions V573M, F589L, G667S
Method: In the genetic screen cDNAs harboring the MPRIP-NTRK1 oncogene were introduced into Ba/F3 cells. The Ba/F3 cells were treated with the mutagen, 100 μg/mL N-ethyl-N-nitrosourea (ENU; Sigma Aldrich, St. Louis, Mo.), overnight. […] At confluence, the cells were collected and genomic DNA was extracted. The NTRK1 kinase region was amplified and the PCR products were purified and sequenced. A plasmids encoding MPRIP-NTRK1 mutations were generated with QuickChange site-directed mutagenesis according to the manufacturer's instructions using a sequence encoding a wildtype MPRIP-NTRK1 fusion protein as a template. Each mutation was confirmed by DNA sequencing. The Ba/F3 cells and NIH353 cells expressing MPRIP-NTRK1 mutants were generated by infecting Ba/F3 and NIH353 parental cells with lentivirus encoding the mutation MPRIP-NTRK1 fusion proteins, followed by selection with puromycin.

[2] = test system: cells expressing a TRIM24-NTRK2 fusion protein including TrkB inhibitor resistance mutations; assay: Proliferation (percent of control) of cells expressing mutant TRIM24-NTRK2 fusion; format: cell-based; settings: Example 3; TrkB substitutions V601G, G623S, R630K
Method: N-ethyl-N-nitrosourea (ENU)-exposed Ba/F3-MPRIP-NTRK1 and Ba/F3-TRIM24-NTRK2 cells were used to generate mutations permitting growth of Ba/F3 cells in the absence of IL-3 despite the presence of 100, 250, or 500 nM (S)—N-(5-((R)-2-(2,5-difluorophenyl)pyrrolidin-1-yl)pyrazolo[1,5-a]pyrimidin-3-yl)-3-hydroxypyrrolidine-1-c[…]. The Mutations identified by genomic DNA sequencing in the initial screen were validated by cloning the mutation-bearing cDNAs back into Ba/F3 cells to evaluate their sensitivity to (S)—N-(5-((R)-2-(2,5-DIFLUOROPHENYL)PYRROLIDIN-1-YL)PYRAZOLO[1,5-A]PYRIMIDIN-3-YL)-3-HYDROXYPYRROLIDINE-1-C[…] using both proliferation assays and TRK phosphorylation by immunoblot analyses. Modeling of the mutations was performed by mapping of the amino acid substitutions onto a drug-bound TRK kinase domain crystal structure.
Ba/F3 cells stably expressing MPRIP-NTRK1 or TRIM24-NTRK2 were treated overnight with […] N-Ethyl-N-nitrosourea (ENU), pelleted, resuspended in fresh media, and distributed in 96-well plates in 200 μL media supplemented with (S)—N-(5-((R)-2-(2,5-DIFLUOROPHENYL)PYRROLIDIN-1-YL)PYRAZOLO[1,5-A]PYRIMIDIN-3-YL)-3-HYDROXYPYRROLIDINE-1-C[…] (100, 250, and 500 nM). […]

[3] = test system: TRKA and ERK1/2 activation in NIH3T3 cells expressing MPRIP-NTRK1 fusions; assay: Western blot analysis of NIH3T3 cells expressing MPRIP-NTRK1 fusions; format: cell-based; settings: 2 hours
[4] = test system: TRKB and ERK1/2 activation in NIH3T3 cells expressing TRIM24-NTRK2 fusions; assay: Western blot analysis of NIH3T3 cells expressing TRIM24-NTRK2 fusions; format: cell-based; settings: 2 hours
Method: FIG. 11 is a photograph of a Western blot analysis of NIH3T3 cells treated with the indicated concentrations of (S)—N-(5-((R)-2-(2,5-difluorophenyl)pyrrolidin-1-yl)pyrazolo[1,5-a]pyrimidin-3-yl)-3-hydroxypyrrolidine-1-c[…] (Cmpd A) for 2 hours.
Ba/F3 cells stably expressing MPRIP-NTRK1 or TRIM24-NTRK2 were treated overnight with […] N-Ethyl-N-nitrosourea (ENU), pelleted, resuspended in fresh media, and distributed in 96-well plates in 200 μL media supplemented with (S)—N-(5-((R)-2-(2,5-DIFLUOROPHENYL)PYRROLIDIN-1-YL)PYRAZOLO[1,5-A]PYRIMIDIN-3-YL)-3-HYDROXYPYRROLIDINE-1-C[…] (100, 250, and 500 nM). […] The contents of outgrown wells were expanded in 12-well plates in media supplemented with (S)—N-(5-((R)-2-(2,5-DIFLUOROPHENYL)PYRROLIDIN-1-YL)PYRAZOLO[1,5-A]PYRIMIDIN-3-YL)-3-HYDROXYPYRROLIDINE-1-C[…] at the same concentration as in the initial 96-well plate. At confluence, cells were collected and genomic DNA was extracted. The NTRK1 and NTRK2 kinase region was PCR-amplified and sequenced. Plasmids encoding MPRIP-NTRK1 and TRIM24-NTRK2 mutations were generated with QuickChange site-directed mutagenesis and confirmed by DNA sequencing. Ba/F3 cells and NIH3T3 cells expressing MPRIP-NTRK1 mutants were generated by infecting Ba/F3 and NIH3T3 parental cells with lentivirus encoding MPRIP-NTRK1 mutation followed by selection with puromycin.

TrkA WT = TrkA WT (Homo sapiens, UniProt P04629); assay: Trk enzyme assay ([33P] incorporation into poly-EAY); format: biochemical; settings: wild-type TrkA enzyme; 22° C., 60 minutes
Method: (§1) The assays were conducted in 96-well polypropylene v-bottom microtitre plates (Corning, Costar® 3363) in a total volume of 50 μL. […] The radiolabeled product was then captured on glass fiber filter plates (PerkinElmer, Unifilter®-96, GF/B®) and washed with 5% phosphoric acid to remove unbound radiolabel using a Tomtec MACH III Harvester 96®. After adding 35 μL/well of Bio-Safe II™ liquid scintillation cocktail (Research Products International), the plates were counted in a TopCount NXT (PerkinElmer) using a counting time of 30 s/well. The activity at each concentration of compound was expressed as percent of control (POC) and plotted versus compound concentration.

TrkA V573M = TrkA V573M (Homo sapiens, UniProt P04629, V573M); assay: as above; format: biochemical; settings: mutant TrkA V573M enzyme; 22° C., 60 minutes
Method: (§2) The activity of the various Trk compounds exemplified in Table 6 was determined by monitoring the incorporation of [^33P]PO4 from [γ-^33P]ATP into poly-EAY (Sigma-Aldrich, P3899).
as §1

TrkA F589L = TrkA F589L (Homo sapiens, UniProt P04629, F589L); assay: as above; format: biochemical; settings: mutant TrkA F589L enzyme; 22° C., 60 minutes
Method: as §2, §1

TrkA G595R = TrkA G595R (Homo sapiens, UniProt P04629, G595R); assay: as above; format: biochemical; settings: mutant TrkA G595R enzyme; 22° C., 60 minutes
Method: as §2, §1

TrkA G667C = TrkA G667C (Homo sapiens, UniProt P04629, G667C); assay: as above; format: biochemical; settings: mutant TrkA G667C enzyme; 22° C., 60 minutes
Method: as §2, §1

TrkA G667S = TrkA G667S (Homo sapiens, UniProt P04629, G667S); assay: as above; format: biochemical; settings: mutant TrkA G667S enzyme; 22° C., 60 minutes
Method: as §2, §1

TrkB WT = TrkB WT (Homo sapiens, UniProt Q16620); assay: as above; format: biochemical; settings: wild-type TrkB enzyme; 22° C., 60 minutes
Method: as §1

TrkB G623R = TrkB G623R (Homo sapiens, UniProt Q16620, G623R); assay: as above; format: biochemical; settings: mutant TrkB G623R enzyme; 22° C., 60 minutes
Method: as §1

TrkC WT = TrkC WT (Homo sapiens, UniProt Q16288, S70N); assay: as above; format: biochemical; settings: wild-type TrkC enzyme; 22° C., 60 minutes
Method: as §1

TrkC G623R = TrkC G623R (Homo sapiens, UniProt Q16288, G623R/S70N); assay: as above; format: biochemical; settings: mutant TrkC G623R enzyme; 22° C., 60 minutes
Method: The radiolabeled product was then captured on glass fiber filter plates (PerkinElmer, Unifilter®-96, GF/B®) and washed with 5% phosphoric acid to remove unbound radiolabel using a Tomtec MACH III Harvester 96®. After adding 35 μL/well of Bio-Safe II™ liquid scintillation cocktail (Research Products International), the plates were counted in a TopCount NXT (PerkinElmer) using a counting time of 30 s/well. The activity at each concentration of compound was expressed as percent of control (POC) and plotted versus compound concentration.

TrkC F617L = TrkC F617L (Homo sapiens, UniProt Q16288, F617L/S70N); assay: as above; format: biochemical; settings: mutant TrkC F617L enzyme; 22° C., 60 minutes
Chain of TrkC F617L (Q16288 32-839 S70N/F617L): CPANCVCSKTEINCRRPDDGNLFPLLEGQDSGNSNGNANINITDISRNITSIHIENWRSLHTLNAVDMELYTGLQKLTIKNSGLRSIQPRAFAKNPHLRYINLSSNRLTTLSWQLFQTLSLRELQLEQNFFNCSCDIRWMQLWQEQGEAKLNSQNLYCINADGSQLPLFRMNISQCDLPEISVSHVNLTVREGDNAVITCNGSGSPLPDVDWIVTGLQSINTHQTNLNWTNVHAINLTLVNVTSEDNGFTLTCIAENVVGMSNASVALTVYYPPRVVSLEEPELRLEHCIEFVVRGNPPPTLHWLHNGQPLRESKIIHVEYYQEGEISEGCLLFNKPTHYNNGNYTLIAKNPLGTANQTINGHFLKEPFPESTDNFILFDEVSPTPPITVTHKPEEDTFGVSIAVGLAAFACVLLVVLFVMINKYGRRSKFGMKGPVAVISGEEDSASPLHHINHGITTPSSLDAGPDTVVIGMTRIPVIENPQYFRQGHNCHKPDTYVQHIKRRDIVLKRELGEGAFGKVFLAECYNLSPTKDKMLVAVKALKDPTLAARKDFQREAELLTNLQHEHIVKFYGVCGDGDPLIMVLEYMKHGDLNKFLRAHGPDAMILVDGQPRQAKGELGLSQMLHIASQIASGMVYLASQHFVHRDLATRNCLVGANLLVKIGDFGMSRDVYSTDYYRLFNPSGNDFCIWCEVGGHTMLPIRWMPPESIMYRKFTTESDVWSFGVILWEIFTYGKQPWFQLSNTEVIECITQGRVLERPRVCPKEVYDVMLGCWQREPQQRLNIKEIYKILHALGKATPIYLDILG
Method: as §1

Chain of TrkC G623R (Q16288 32-839 S70N/G623R): as the sequence (Q16288 32-839 S70N/F617L) above, with L586F, G592R counted along it
Chain of TrkA F589L (P04629 33-796 F589L): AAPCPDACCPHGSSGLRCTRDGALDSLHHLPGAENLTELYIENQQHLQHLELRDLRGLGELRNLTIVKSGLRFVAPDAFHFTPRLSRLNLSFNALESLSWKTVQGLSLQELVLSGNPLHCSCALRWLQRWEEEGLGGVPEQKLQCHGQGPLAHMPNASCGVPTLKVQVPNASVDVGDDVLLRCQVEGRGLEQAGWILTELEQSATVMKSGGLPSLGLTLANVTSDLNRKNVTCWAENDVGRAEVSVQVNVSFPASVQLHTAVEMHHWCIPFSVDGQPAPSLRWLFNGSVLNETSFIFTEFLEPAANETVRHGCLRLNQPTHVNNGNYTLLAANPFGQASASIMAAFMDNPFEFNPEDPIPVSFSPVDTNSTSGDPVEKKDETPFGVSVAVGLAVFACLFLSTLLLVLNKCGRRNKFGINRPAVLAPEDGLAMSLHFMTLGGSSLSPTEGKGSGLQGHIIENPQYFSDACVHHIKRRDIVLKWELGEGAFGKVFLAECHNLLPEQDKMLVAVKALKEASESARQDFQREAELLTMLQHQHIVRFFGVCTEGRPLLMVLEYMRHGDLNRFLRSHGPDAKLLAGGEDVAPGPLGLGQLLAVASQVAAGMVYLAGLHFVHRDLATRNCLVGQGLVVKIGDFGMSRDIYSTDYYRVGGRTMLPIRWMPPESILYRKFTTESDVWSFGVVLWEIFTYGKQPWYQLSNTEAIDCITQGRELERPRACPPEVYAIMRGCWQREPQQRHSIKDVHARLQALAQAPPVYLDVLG
Chain of TrkA G595R (P04629 33-796 G595R): as the sequence (P04629 33-796 F589L) above, with L557F, G563R counted along it
Chain of TrkA V573M (P04629 33-796 V573M): as the sequence (P04629 33-796 F589L) above, with V541M, L557F counted along it
Chain of TrkB G623R (Q16620 32-822 G623R): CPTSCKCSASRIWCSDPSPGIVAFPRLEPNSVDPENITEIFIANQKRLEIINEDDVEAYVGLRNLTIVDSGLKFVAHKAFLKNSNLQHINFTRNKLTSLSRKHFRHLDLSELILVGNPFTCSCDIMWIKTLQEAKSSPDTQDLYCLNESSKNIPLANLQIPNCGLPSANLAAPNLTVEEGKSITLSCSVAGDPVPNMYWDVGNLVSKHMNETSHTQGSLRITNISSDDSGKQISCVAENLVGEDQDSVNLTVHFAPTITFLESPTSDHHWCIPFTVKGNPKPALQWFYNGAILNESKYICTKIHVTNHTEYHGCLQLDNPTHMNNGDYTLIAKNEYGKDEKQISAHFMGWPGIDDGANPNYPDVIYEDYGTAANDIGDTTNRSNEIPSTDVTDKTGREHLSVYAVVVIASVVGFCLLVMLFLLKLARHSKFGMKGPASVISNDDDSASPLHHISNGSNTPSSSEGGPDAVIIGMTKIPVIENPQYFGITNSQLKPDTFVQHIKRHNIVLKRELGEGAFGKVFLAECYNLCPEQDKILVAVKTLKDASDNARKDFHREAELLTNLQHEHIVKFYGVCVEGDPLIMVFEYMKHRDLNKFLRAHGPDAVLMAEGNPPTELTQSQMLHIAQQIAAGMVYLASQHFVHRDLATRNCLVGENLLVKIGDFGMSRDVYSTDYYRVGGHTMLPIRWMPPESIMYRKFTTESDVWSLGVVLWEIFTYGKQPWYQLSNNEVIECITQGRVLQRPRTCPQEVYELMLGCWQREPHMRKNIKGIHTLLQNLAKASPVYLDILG
Chain of TrkA G667C (P04629 33-796 G667C): as the sequence (P04629 33-796 F589L) above, with L557F, G635C counted along it
Chain of TrkA WT (P04629 33-796): as the sequence (P04629 33-796 F589L) above, with L557F counted along it
Chain of TrkA G667S (P04629 33-796 G667S): as the sequence (P04629 33-796 F589L) above, with L557F, G635S counted along it
Chain of TrkC WT (Q16288 32-839 S70N): as the sequence (Q16288 32-839 S70N/F617L) above, with L586F counted along it
Chain of TrkB WT (Q16620 32-822): as the sequence (Q16620 32-822 G623R) above, with R592G counted along it

Row | Structure (SMILES) | resistance of cancer cells having a MPRIP-NTRK1 point mutation (POC, FIG. 4) ([1]; Example 1, F600L, Y676S) | resistance of cancer cells having a MPRIP-NTRK1 point mutation (percent of control, FIG. 7) ([1]; Example 3) | resistance of cancer cells having a TRIM24-NTRK2 point mutation (percent of control, FIG. 10) [2] | TRKA and ERK1/2 activation, sensitivity to inhibition (FIG. 8) ([3]; NIH3T3 cells expressing MPRIP-NTRK1 V573M, F589L or G667S fusions) | TRKA and ERK1/2 activation, sensitivity to inhibition (FIG. 8) ([3]; NIH3T3 cells expressing MPRIP-NTRK1 WT fusion) | TRKB and ERK1/2 activation, sensitivity to inhibition (FIG. 11) ([4]; NIH3T3 cells expressing TRIM24-NTRK2 V601G, G623S or R630K fusions) | TRKB and ERK1/2 activation, sensitivity to inhibition (FIG. 11) ([4]; NIH3T3 cells expressing TRIM24-NTRK2 WT fusion) | IC50 (TrkA WT) [nM] | IC50 (TrkA V573M) [nM] | IC50 (TrkA F589L) [nM] | IC50 (TrkA G595R) [nM] | IC50 (TrkA G667C) [nM] | IC50 (TrkA G667S) [nM] | IC50 (TrkB WT) [nM] | IC50 (TrkB G623R) [nM] | IC50 (TrkC WT) [nM] | IC50 (TrkC G623R) [nM] | IC50 (TrkC F617L) [nM]
1 | O=C(Nc1cnn2ccc(N3CCC[C@@H]3c3cc(F)ccc3F)nc12)N1CC[C@H](O)C1 [(S)—N-(5-((R)-2-(2,5-difluorophenyl)pyrrolidin-1-yl)pyrazolo[1,5-a]pyrimidin-3-yl)-3-hydroxypyrrolidine-1-carboxamide sulfate] | increased resistance | increased resistance | increased resistance | resistant | sensitive | resistant | sensitive |  |  |  |  |  |  |  |  |  |  | 
2 | O=C1NCCCOc2cccc(n2)[C@H]2CCCN2c2ccn3ncc1c3n2 [Compound 20, (6R)-12-oxa-2,16,20,21,24,26-hexaazapentacyclo[16.5.2.^17,11.0^2,6.0^21,25]-hexacosa-1(24),7(26),8,10,18(25),19,22-heptaen-17-one] |  |  |  |  |  |  |  | < 0.5 | 36.5 | 48.3 | 2.7 | 13.3 | 3.2 | 3.1 | 3.1 | < 2.5 | 3.1 | 18.3
3 | CC(=O)N1CCOc2ccc(F)cc2[C@H]2CCCN2c2ccn3ncc(c3n2)C1 [Compound 21, 1-[(6R)-9-fluoro-13-oxa-2,16,20,21,24-pentaazapentacyclo[16.5.2.0^2,6.0^7,12.0^21,25]pentacosa-1(24),7,9,11,18(25),19,22-heptaen-16-yl]ethan-1-one] |  |  |  |  |  |  |  | 0.6 | 29.1 | 66.3 | 7.3 | 22.2 | 8.4 | 5.6 | 12.4 | < 2.5 | 7.8 | 48.5
4 | O=C1OCCOc2ncc(F)cc2[C@H]2CCCN2c2ccn3ncc1c3n2 [Compound 22, (6R)-9-fluoro-13,16-dioxa-2,11,20,21,24-pentaazapentacyclo[16.5.2.0^2,6.0^7,12.0^21,25]-pentacosa-1(24),7,9,11,18(25),19,22-heptaen-17-one] |  |  |  |  |  |  |  | 0.5 | < 5 | 8.4 | 1.5 | 5.7 | 0.9 | 2.9 | 1.3 | < 2.5 | 1.5 | 5.4
5 | O=C1NCC(F)(F)COc2ncc(F)cc2[C@H]2CCCN2c2ccn3ncc1c3n2 [Compound 23, (6R)-9,15,15-trifluoro-13-oxa-2,11,17,21, 22,25-hexaazapentacyclo [17.5.2.0^2,6.0^7,12.0^22,26]hexacosa-1(25),7,9, 11,19(26),20,23-heptaen-18-one] |  |  |  |  |  |  |  | 0.7 | < 5 | < 1 | 1.6 | 0.8 | 0.3 | 6.1 | 1.1 | 2.7 | 2.1 | 5.8
6 | C[C@H]1CNC(=O)c2cnn3ccc(nc23)N2CCC[C@@H]2c2cc(F)cn(c2=O)C1 [Compound 24, (6R,13S)-9-fluoro-13-methyl-2,11,15, 19,20,23-hexaazapentacyclo [15.5.2.^17,11.0^2,6.0^20,24]pentacosa-1(23),7,9,17(24),18,21-hexaene-16,25-dione] |  |  |  |  |  |  |  | 0.5 | 38.3 | 86.8 | 3.3 | 22.3 | 4.7 | 4.7 | 4.2 | < 2.5 | 4.5 | 61.9
7 | CC1(C)CNC(=O)c2cnn3ccc(nc23)N2CCC[C@@H]2c2cc(F)cnc2OC1 [Compound 25, (6R)-9-fluoro-15,15-dimethyl-13-oxa-2,11,17,21,22,25-hexaazapentacyclo [17,5.2.0^2,6.0^7,12.0^22,26]hexacosa-1(25),7,9,11,19(26),20,23-heptaen-18-one] |  |  |  |  |  |  |  | 1 | < 5 | 1.1 | 3 | 1 | 0.5 | 8.7 | 2.3 | 4 | 4.7 | 8.1
8 | O=C1NC[C@H](O)COc2ccc(F)cc2[C@H]2CC(F)(F)CN2c2ccn3ncc1c3n2 [Compound 26, (15S)-4,4,9-trifluoro-15-hydroxy-13-oxa-2,17,21,22.25-pentaazapentacyclo [17.5.2.0^2,6.0^7,12.0^22,26]hexacosa-1(25),7(12),8,10,19(26),20,23-heptaen-18-one] |  |  |  |  |  |  |  | 0.6 | < 5 | 3.9 | 2.1 | 1 | 0.5 | 3.3 | 1.8 | < 2.5 | 2.6 | 9.6
